Experimental data: article PMC8145107 (Pharmaceutics, 2021)
Read-outs that look alike come from different tables or passages of the source.

Assays:
[1] = system: NIH 3T3: mouse embryonic fibroblast cell line; assay: Cytotoxicity in normal mammalian cells (NIH 3T3); type: cell-based; conditions: NIH3T3, 24 h, 0.01-100 μM, read-out: IC50 of compounds in various normal mammalian cells
[2] = system: Salmonella typhimurium TA100; conditions: for Ames test outcome versus vehicle control: TA100, 48 h, J2 40 μg/plate, NA49 200 μg/plate
Description: (§1) To perform the Ames test of J2 and NA49, the number of revertant colonies was counted on each compound-treated plate at the maximum concentration at which the compound was soluble and nontoxic to the S. typhimurium tester strains (Supplementary Material S1). The ratio of the number of revertant colonies in the treated plate to colonies in the vehicle plate. […] For the hERG K^+ channel binding assay of J2 and NA49, the inhibitory activity against the hERG K^+ channel and its ligand was measured using a red fluorescent hERG channel ligand tracer. The final activity was assessed as a decrease in the degree of fluorescence polarization. […]
(§2) The test was conducted with maximum concentration at which the compound was
(§3) soluble and nontoxic to the S. typhimurium tester strains. #Factor = No. of revertant colonies
(§4) of treated plate colonies of vehicle control plate. […]

[3] = system: Salmonella typhimurium TA98; conditions: for Ames test outcome versus vehicle control: TA98, 48 h, J2 40 μg/plate, NA49 200 μg/plate
Description: as §1, §2, §3, §4

[4] = Pharmacokinetic study after IV injection in rats; type: in vivo; conditions: male, Sprague-Dawley, plasma, rat
Source text: (§5) Male Sprague–Dawley rats (7-week-old) and male Institute of Cancer Research (ICR) mice (5-week-old) were purchased from Orient Bio (Seongnam, Korea) and Samtako Bio (Osan, Korea), respectively. The experimental animals were housed under conventional conditions and fasted overnight before surgery for catheterization. All procedures for animal experiments were in accordance with the guidelines by the Ewha Woman’s University Institutional Animal Care and Use Committee (IACUC, 15-049 and 16-062), Korea.
The HPLC system used for this study was an Agilent HP1100 equipped with a quaternary pump with degasser, a variable wavelength detector, a thermostatted auto-sampler, and an HPLC 2D Agilent ChemStation software. A capcell-pak C18 MG120 column (3.0 × 250 mm, 5 µm, Shiseido, Tokyo, Japan) was used at 25 °C. The mobile phase was composed of water (0.1% trifluoroacetic acid) and acetonitrile (0.1% trifluoroacetic acid) (57:43 (v/v) for J2 and 50:50 (v/v) for NA49, respectively), filtered through a 0.45 μm Millipore filter and degassed prior to use, and the flow rate was 0.5 mL/min. UV detection was performed at 248 nm for J2 and at 246 nm for NA49, and the injection volume was 40 µL for both compounds. […] The accuracy (%) was calculated by dividing the mean of the measured drug concentration by the theoretical drug concentration. […] After extraction, the supernatant was transferred to a clean insert for HPLC analysis.
J2 and NA49 were dissolved in 10% DMAc and 10% Tween® 80 solution in saline to a concentration of 2.5 mg/mL for pharmacokinetic studies. The common carotid artery of the rat was catheterized under anesthesia using isoflurane the day before administration of J2 and NA49 [27]. Rats were divided into four groups. J2 and NA49 were administered to rats by intravenous (IV) injection at doses of 2 mg/kg and 10 mg/kg, respectively. Blood samples (0.2~0.25 mL) were collected at 0, 0.033, 0.083, 0.167, 0.33, 0.67, 1, 2, 3, 5, 7, 9, and 24 h following IV administration. The plasma samples obtained after centrifugation of the blood samples were stored at −20°C until HPLC analysis. The following pharmacokinetic parameters of J2 and NA49 were estimated by non-compartmental analysis using WinNonlin® Professional version 5.2 software (Pharsight Corporation, Mountain View, CA, USA): Initial drug concentration (C0), area under the plasma concentration–time curve from 0 h to the final sampling time point (AUC0-last), elimination half-life (t1/2), apparent volume of distribution (Vd), and total clearance (Cl).

[5] = Single-dose IV toxicity in ICR mice; type: in vivo, mouse; conditions: male, mouse, in vivo, not achieved by the maximum dose
Source text: as §5
For single-dose toxicity study of each drug, ICR mice were divided into 6 groups of control (0.9% normal saline), vehicle, and four dosages of each inhibitor (n = 4 mice per group). Both inhibitors dissolved in the same solvent system as the pharmacokinetic study were administered to the mice by caudal vein injection at doses of 2.5, 7.5, 15 and 30 mg/kg. After a single administration, all mice were observed daily for general conditions including behavior, hair, eyes, and nose. In addition, body weight was measured on days 0, 3, 7, and 14 following IV administration.

[6] = Stability tests of the analytes (HPLC method validation, rat plasma); type: physicochemical; conditions: for Stability of standard stock solution: 1 mg/mL
Description: pounds. The analytical method of the analytes was validated by FDA Bioanalytical Method Validation Guidance for Industry. The chromatogram of the rat plasma spiked with J2 and SW15 (IS) or NA49 and NA27 was compared with that of the blank rat plasma in order to confirm the specificity of the analytical method. The calibration curves of J2 and NA49 in rat plasma was built for nine concentration levels in the range of 0.025–10 µg/mL. The sensitivity of detection was evaluated by the lower limit of quantification […]
than the baseline noise. The intra-day precision and accuracy were estimated by analyzing five sets of four quality control (QC) samples (0.025, 0.05, 0.5 and 5 µg/mL) in the same day. The inter-day precision and accuracy were evaluated by analyzing a set of four QC samples on five different days. The precision was expressed as a coefficient of variation (CV%) by calculating the ratio of the standard deviation to the mean measured drug con-centration. The accuracy (%) was calculated by dividing a mean measured drug concen-tration by the theoretical drug concentration. The recovery of the analytes from the plasma samples was evaluated at low and high concentrations (0.05 and 5 µg/mL, respectively) by comparing the peak areas of the analytes after extraction to those before extraction. […]
The short-term stability tests were conducted at room temperature for 4 h for J2 and 6 h for […], while the long-term stability tests were performed at −20°C and −70°C for 2 weeks and 4 weeks, respectively. The stability of the analytes following three freeze-thaw cycles, the post-preparative stability and the stock solution stability were also exam-ined. Each blood sample collected from the experimental animals was transferred into an […]

[7] = TA100, with S-9 mix, J2 40, NA49 200, benzo(a)pyrene 2 μg/plate
[8] = TA100, without S-9 mix, J2 40, NA49 200 μg/plate
[9] = TA98, with S-9 mix, J2 40, NA49 200, benzo(a)pyrene 2 μg/plate
[10] = TA98, without S-9 mix, J2 40, NA49 200, positive controls 1-2 μg/plate

Row | SMILES | IC50 [1] [µM] | Factor (revertant colonies of treated plate/vehicle control plate) [2, 7] | Revertant colonies/plate (Mean ± S.D.) [2, 7] [colonies/plate] | Factor (revertant colonies of treated plate/vehicle control plate) [2, 8] | Revertant colonies/plate (Mean ± S.D.) [2, 8] [colonies/plate] | Ames test outcome versus vehicle control [2] | Factor (revertant colonies of treated plate/vehicle control plate) [3, 9] | Revertant colonies/plate (Mean ± S.D.) [3, 9] [colonies/plate] | Factor (revertant colonies of treated plate/vehicle control plate) [3, 10] | Revertant colonies/plate (Mean ± S.D.) [3, 10] [colonies/plate] | Ames test outcome versus vehicle control [3] | AUC(0-t) ([4]; 2 mg/kg) [ng·h/mL] | C0 ([4]; 2 mg/kg) [ng/mL] | Vd ([4]; 2 mg/kg) [L] | clearance ([4]; 2 mg/kg) [mL/min] | half-life ([4]; 2 mg/kg) [min] | AUC(0-t) ([4]; 10 mg/kg) [ng·h/mL] | C0 ([4]; 10 mg/kg) [ng/mL] | Vd ([4]; 10 mg/kg) [L] | clearance ([4]; 10 mg/kg) [mL/min] | other results
1 | COc1ccc(-c2coc3cc(OCC4CS4)ccc3c2=O)c(OC)c1 (centres unmarked) [NA49] | 96.5 | 1.9 | 262 ± 11 | 2.0 | 229 ± 2 | no significant increase | 1.3 | 22 ± 2 | 1.2 | 19 ± 3 | no significant increase | 210 ± 70 | 720 ± 400 | 3.35 ± 1.69 | 30.7 | 84 ± 50.4 | 1240 ± 590 | 4960 ± 1120 | 4.13 ± 1.87 | 30 | half-life ([4]; 10 mg/kg): 93 ± 28.8 min; LD50 at 14 days [5]: > 30 mg/kg; Stability of post-preparative sample [6]: 96.9–102.4%; Stability of standard stock solution [6]: 98.7%
2 | Cc1cc(=O)c2c(O)cc(OCC3CS3)cc2o1 (centres unmarked) [J2] | > 100 | 3.1 | 418 ± 9 | 6.0 | 643 ± 70 | increased bacterial reverse mutation | 3.8 | 65 ± 2 | 3.6 | 57 ± 7 | increased bacterial reverse mutation | 180 ± 50 | 1640 ± 730 | 0.77 ± 0.27 | 46.5 | 11.4 ± 4.2 | 1480 ± 750 | 6960 ± 2600 | 1.05 ± 0.72 | 31.7 | half-life ([4]; 10 mg/kg): 27 ± 18 min; LD50 at 14 days [5]: > 30 mg/kg; Stability of post-preparative sample [6]: 102.2–103.4%; Stability of standard stock solution [6]: 113.2%; Stability after three freeze–thaw cycles, mean ([6]; low concentration (0.05 µg/mL)): 116.6%; Stability at −70°C for 4 weeks, mean ([6]; low concentration (0.05 µg/mL)): 115.2%
